Laboratory results published in ChEMBL document CHEMBL4831484, “Identification of 3, 4-disubstituted pyridine derivatives as novel CDK8 inhibitors” (Eur J Med Chem, 2021).
Activity calls are given as the source filed them. No cut-off for these calls is given here.

Columns and labels:
[1] = Half-life in ICR mouse at 150 mg/kg, po measured after 24 hrs by LC-MS/MS analysis; assay type: ADME, organism-based; conditions: in vivo
[2] = Tmax in ICR mouse at 150 mg/kg, po measured after 24 hrs by LC-MS/MS analysis; assay type: ADME, organism-based; conditions: in vivo
[3] = biological target: CDK8/Cyclin C (Homo sapiens) (UniProt P49336+P24863); assay: Inhibition of CDK8/Cyclin C (unknown origin) at 10 uM measured after 1 hr by plate reader assay relative to control; assay type: protein-complex assay
[4] = Antiproliferative activity against human KB-VIN cells assessed as inhibition of cell growth measured after 72 hrs by SRB assay; assay type: functional; conditions: KBVIN
[5] = AUC (0 to 24h) in ICR mouse at 150 mg/kg, po measured after 24 hrs by LC-MS/MS analysis; assay type: ADME, organism-based; set-up: route oral, dose 150 mg/kg, time 24 hrs; conditions: in vivo
[6] = biological target: CDK8/Cyclin C (Homo sapiens, UniProt P49336); assay: Inhibition of CDK8/Cyclin C (unknown origin) measured after 1 hr by plate reader assay; assay type: protein-complex assay
[7] = system: HCT-116; assay: Antiproliferative activity against human HCT-116 cells assessed as inhibition of cell growth measured after 72 hrs by […]; assay type: functional
[8] = Toxicity in BALB/c mouse xenografted with human HCT-116 cells assessed as mortality at 150 mg/kg, po measured after 14 days; assay type: organism-based; conditions: in vivo, 336 h, time 14 day
[9] = system: A549; assay: Antiproliferative activity against human A549 cells assessed as inhibition of cell growth measured after 72 hrs by SRB assay; assay type: functional
[10] = Cmax in ICR mouse at 150 mg/kg, po measured after 24 hrs by LC-MS/MS analysis; assay type: ADME, organism-based; set-up: route oral, time 24 hrs, dose 150 mg/kg; conditions: in vivo
[11] = system: MDA-MB-231; assay: Antiproliferative activity against human MDA-MB-231 cells assessed as inhibition of cell growth measured after 72 hrs by SRB assay; assay type: functional
[12] = Toxicity in BALB/c mouse xenografted with human HCT-116 cells assessed as changes in body weight at 150 mg/kg, po measured after 14 days; assay type: organism-based; conditions: in vivo, 336 h, time 14 day
[13] = system: HCT-116; assay: Antitumour activity against human HCT-116 cells assessed as decrease in tumor volume at 150 mg/kg, po measured after 14 days relative to control; assay type: functional; set-up: scale not given: the % may be the effect or the level left; conditions: time 14 day
[14] = system: MCF7; assay: Antiproliferative activity against human MCF7 cells assessed as inhibition of cell growth measured after 72 hrs by SRB assay; assay type: functional
[15] = MRT (0 to 24h) in ICR mouse at 150 mg/kg, po measured after 24 hrs by LC-MS/MS analysis; assay type: ADME, organism-based; conditions: in vivo
[16] = system: KB; assay: Antiproliferative activity against human KB cells assessed as inhibition of cell growth measured after 72 hrs by SRB assay; assay type: functional
[17] = system: MDA-MB-231; assay: Induction of cell cycle arrest in human MDA-MB-231 cells assessed as accumulation of cells at G2/M phase measured after 24 hrs by PI staining based flow cytometry assay; assay type: functional
[18] = biological target: Cyclin-dependent kinase 8 (Homo sapiens) (UniProt P49336); assay: Inhibition of CDK8 (unknown origin) at 10 uM
[19] = biological target: Cyclin-dependent kinase 7 (Homo sapiens) (UniProt P50613); assay: Inhibition of CDK7 (unknown origin) at 10 uM
Chain of Cyclin-dependent kinase 7 (Homo sapiens) (P50613 whole entry): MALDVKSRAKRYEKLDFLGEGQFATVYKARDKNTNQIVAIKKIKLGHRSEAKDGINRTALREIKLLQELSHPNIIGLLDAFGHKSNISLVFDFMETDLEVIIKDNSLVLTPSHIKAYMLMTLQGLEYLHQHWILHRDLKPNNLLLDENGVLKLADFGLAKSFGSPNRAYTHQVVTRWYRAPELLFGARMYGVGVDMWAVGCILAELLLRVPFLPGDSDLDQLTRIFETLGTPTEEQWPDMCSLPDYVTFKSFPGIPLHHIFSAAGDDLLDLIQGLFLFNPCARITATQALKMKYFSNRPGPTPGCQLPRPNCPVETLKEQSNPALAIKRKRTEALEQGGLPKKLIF

Chain of CDK8/Cyclin C (P49336 whole entry): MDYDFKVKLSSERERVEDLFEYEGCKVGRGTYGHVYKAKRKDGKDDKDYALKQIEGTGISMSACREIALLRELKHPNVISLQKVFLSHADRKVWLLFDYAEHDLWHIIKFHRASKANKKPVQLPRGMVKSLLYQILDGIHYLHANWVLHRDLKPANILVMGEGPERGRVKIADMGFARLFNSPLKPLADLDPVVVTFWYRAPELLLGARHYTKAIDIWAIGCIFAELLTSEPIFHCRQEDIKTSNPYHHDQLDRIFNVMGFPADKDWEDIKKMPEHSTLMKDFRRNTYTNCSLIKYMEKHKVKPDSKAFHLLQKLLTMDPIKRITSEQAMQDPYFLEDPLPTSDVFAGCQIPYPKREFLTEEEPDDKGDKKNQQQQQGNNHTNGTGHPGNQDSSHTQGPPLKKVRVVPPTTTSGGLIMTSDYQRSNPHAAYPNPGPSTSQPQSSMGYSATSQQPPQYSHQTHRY
Chain of CDK8/Cyclin C (P24863 whole entry, further chain): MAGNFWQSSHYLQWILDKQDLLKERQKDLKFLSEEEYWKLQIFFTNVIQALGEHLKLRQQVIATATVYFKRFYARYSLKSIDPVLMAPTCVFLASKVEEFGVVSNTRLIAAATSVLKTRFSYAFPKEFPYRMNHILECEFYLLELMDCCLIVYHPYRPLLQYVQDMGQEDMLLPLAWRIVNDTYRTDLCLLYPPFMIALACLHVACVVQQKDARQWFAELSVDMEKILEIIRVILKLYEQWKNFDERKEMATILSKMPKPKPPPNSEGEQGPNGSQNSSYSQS
Chain of Cyclin-dependent kinase 8 (Homo sapiens) (P49336 whole entry): as the sequence (P49336 whole entry) above

inhibition [3] [%] | IC50 [6] [µM] | GI50 [7] [µM] | GI50 [9] [µM] | GI50 [11] [µM] | GI50 [14] [µM] | GI50 [16] [µM] | inhibition [18] | inhibition [19] | SMILES | half-life [1] [h] | Tmax [2] [h] | GI50 [4] [µM] | AUC(0-t) at 24 h [5] [ng·h/mL] | Activity [8] | Cmax [10] [ng/mL] | Activity [12] | Activity [13] [%] | MRT last at 24 h [15] [h] | Activity [17]
100 | 0.0301 | 4.54 | 5.8 | 7.99 | 8.19 | 7.76 |  |  | CN(C)C(=O)/C=C/c1ccncc1-c1ccc2ccccc2c1 |  |  | 4.93 |  |  |  |  |  |  | Dose-Dependent Effect
102 | 0.0439 | > 30 | > 10 | > 10 | > 10 | > 10 | Active | Active | O=C(/C=C/c1ccncc1-c1ccc2cc[nH]c2c1)N1CCOCC1 |  |  | > 10 |  |  |  |  |  |  | 

SMILES | inhibition [3] [%] | IC50 [6] [µM] | GI50 [7] [µM] | GI50 [9] [µM] | GI50 [11] [µM] | GI50 [14] [µM] | GI50 [16] [µM] | inhibition [18] | inhibition [19] | half-life [1] [h] | Tmax [2] [h] | GI50 [4] [µM] | AUC(0-t) at 24 h [5] [ng·h/mL] | Activity [8] | Cmax [10] [ng/mL] | Activity [12] | Activity [13] [%] | MRT last at 24 h [15] [h] | Activity [17]
COC(=O)/C=C/c1ccncc1-c1ccc2ccccc2c1 | 102 | 0.0406 | 0.35 | 0.76 | 4.71 | 8.17 | 6.73 |  |  | 3.93 | 0.57 | 5.46 | 153 | Non-Toxic | 46.6 | Non-Toxic | 44 | 2.68 | 
